Columns and labels:
Format in all cases: biochemical
Sulf-2 = target: T1, Sulf-2 (Homo sapiens, UniProt Q8IWU5); assay: Inhibition of Sulf-2-catalysed desulfation of 4-MUS to fluorescent MU; settings: 1 mM compound; 4-MUS substrate; means of two or more determinations; read-out: Sulf-2% inh @ 1 mM
T1 construct: host or cells: 293T cells, transiently transfected
Experimental: (§1) Compounds were assayed for their ability to inhibit the Sulf-2-catalysed desulfation of 4-methylumbelliferyl sulfate (4-MUS) to the fluorescent 4-methylumbelliferone (MU). To determine their sulfatase selectivity, inhibition of aryl sulfatases A (ARSA) and B (ARSB) was also assessed. To date no suitable benchmark inhibitors of these sulfatase have been reported. […] In the majority of cases the presence of a substituent on the B-ring was detrimental to Sulf-2 inhibition when compared with unsubstituted biphenyl sulfamate 76. Aminosulfates 54 and 62 and carboxylic acid 15 retained potency. […] Compounds 8, 10, 15, 50 and 51 were also relatively potent ARSA inhibitors. […] Aminosulfates 56 and 63 were the best Sulf-2 inhibitors lacking a trichloroethylsulfamate group.
1 – Biological assay protocols
Compounds were screened using 4-MUS as a substrate for Sulf-2 according to a protocol described by Morimoto-Tomita et al.1 Briefly 293T cells were transiently transfected with pcDNA3.1/Myc-His(-)-HSulf-2 DNA (Addgene) and TransIT-LT1 Transfection Reagent (Mirus) using a transfection mixture at the ratio 1:3 (µg DNA:
µL transfection reagent) in Opti-MEM I reduced serum medium (Gibco). Conditioned medium containing Sulf-2 was collected after 3 days and bound to HIS-Select Nickel affinity gel (Sigma) overnight at 4 °C. Beads were washed three times with washing buffer containing 50 mM HEPES (pH 7.5), 300 mM NaCl, 0.05% Tween 20, followed by washing once with washing buffer containing no tween. Beads were suspended in 50 mM Hepes (pH 7.5) and used in inhibition assays. 20 μL of bead slurry was incubated with 1 mM compound (in DMSO) plus 10X reaction buffer (500 mM HEPES pH 7.5, 100 mM CaCl2) for 1 h at 37 °C. The reaction was started by the addition of 20 μL of 20 mM 4-MUS (final concentration of 8 mM) and incubated at 37 °C for 1 h. The reaction was stopped with 100 μL 1 M Tris buffer (pH 10.4) and read at 460 nm following excitation at 355 nm in FLUOstar Omega plate reader (BMG Labtech) using Omega data analysis software. […]

aryl sulfatase A (ARSA) = target: T2, aryl sulfatase A (ARSA) (Homo sapiens, UniProt P15289); assay: ARSA inhibition assay with 4-MUS substrate; settings: 1 mM compound; 4-MUS substrate; means of two or more determinations; read-out: ARSA% inh @ 1 mM
T2 construct: purchased R & D Systems
T2 sequence (P15289 19-507): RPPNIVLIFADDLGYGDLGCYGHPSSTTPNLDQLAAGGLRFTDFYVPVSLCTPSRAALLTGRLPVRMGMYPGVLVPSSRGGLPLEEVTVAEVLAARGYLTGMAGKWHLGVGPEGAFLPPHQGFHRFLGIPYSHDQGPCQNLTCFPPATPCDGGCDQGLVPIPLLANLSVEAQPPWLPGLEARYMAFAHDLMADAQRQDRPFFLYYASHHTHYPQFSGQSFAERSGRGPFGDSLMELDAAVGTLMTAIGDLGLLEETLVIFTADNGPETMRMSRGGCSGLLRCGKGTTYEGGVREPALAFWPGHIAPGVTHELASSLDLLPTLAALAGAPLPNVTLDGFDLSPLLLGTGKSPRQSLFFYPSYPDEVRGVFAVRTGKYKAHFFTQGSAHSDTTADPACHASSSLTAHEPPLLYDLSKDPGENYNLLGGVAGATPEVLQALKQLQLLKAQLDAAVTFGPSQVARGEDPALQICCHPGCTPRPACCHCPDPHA
Experimental: as §1
(§2) 1 – Biological assay protocols […]
(§3) Omega data analysis software.
(§4) ARSA and ARSB assay protocols
(§5) Compounds were screened in a 96-well black plate (Sterilin) using 4-MUS as a substrate, using 50 μL reaction mixture containing 40 ng of the commercially available enzymes (ARSA or ARSB from R & D Systems), 50 mM HEPES (pH = 4.5), 10 mM CaCl2, 1 mM test compound (dissolved in DMSO; final concentration of DMSO in reaction = 2%), and H2O (45 μL). The assay mixture was incubated for 1 h at 37 °C, followed by addition of 5 μL of 4-MUS (Km = 1.6 mM for ARSA and 612 μM for ARSB), and incubation for a further 1 h at 37 °C. The reaction was stopped with 100 μL of 1 M Tris (pH = 10.5) and read at 460 nm following excitation at 355 nm in FLUOstar Omega plate reader (BMG Labtech) using Omega data analysis software.

aryl sulfatase B (ARSB) = target: T3, aryl sulfatase B (ARSB) (Homo sapiens, UniProt P15848); assay: ARSB inhibition assay with 4-MUS substrate; settings: 1 mM compound; 4-MUS substrate; means of two or more determinations; read-out: ARSB% inh @ 1 mM
T3 construct: purchased R & D Systems
Experimental: as §1, §2, §3, §4, §5

T3 sequence (P15848 37-533, species assumed): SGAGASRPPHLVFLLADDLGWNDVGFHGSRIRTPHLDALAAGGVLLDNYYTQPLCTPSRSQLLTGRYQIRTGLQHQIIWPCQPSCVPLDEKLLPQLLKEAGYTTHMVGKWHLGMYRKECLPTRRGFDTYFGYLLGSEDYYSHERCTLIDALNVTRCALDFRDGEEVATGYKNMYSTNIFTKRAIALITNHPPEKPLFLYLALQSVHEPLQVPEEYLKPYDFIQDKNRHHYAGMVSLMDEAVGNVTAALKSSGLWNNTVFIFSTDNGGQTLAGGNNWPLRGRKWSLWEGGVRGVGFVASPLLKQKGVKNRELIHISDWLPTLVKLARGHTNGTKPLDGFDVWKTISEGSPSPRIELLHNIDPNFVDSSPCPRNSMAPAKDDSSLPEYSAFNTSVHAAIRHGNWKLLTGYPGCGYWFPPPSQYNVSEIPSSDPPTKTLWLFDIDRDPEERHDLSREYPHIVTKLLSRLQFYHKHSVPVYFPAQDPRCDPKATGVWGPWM
T1 sequence (Q8IWU5 25-870): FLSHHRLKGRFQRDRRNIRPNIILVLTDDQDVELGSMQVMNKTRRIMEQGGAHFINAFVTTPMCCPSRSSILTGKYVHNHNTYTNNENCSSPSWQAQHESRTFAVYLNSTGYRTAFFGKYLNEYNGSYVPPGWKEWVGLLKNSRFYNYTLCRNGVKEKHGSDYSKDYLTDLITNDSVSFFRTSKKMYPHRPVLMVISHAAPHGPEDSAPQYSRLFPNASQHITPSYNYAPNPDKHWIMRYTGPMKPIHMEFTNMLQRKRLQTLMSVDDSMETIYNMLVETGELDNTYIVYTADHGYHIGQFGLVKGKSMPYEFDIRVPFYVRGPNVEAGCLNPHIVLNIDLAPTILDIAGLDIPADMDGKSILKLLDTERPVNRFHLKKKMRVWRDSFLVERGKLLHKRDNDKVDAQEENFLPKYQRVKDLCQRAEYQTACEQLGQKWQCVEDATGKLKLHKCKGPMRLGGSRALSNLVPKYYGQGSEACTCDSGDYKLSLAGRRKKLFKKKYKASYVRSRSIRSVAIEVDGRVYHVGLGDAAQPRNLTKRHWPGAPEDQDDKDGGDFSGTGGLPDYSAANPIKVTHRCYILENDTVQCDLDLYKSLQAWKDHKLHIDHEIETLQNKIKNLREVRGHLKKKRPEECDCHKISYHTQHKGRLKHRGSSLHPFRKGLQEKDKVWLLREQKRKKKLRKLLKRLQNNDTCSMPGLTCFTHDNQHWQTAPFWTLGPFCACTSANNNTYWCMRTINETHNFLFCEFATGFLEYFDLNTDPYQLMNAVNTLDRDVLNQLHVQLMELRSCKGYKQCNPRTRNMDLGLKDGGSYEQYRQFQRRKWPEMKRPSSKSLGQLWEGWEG

| SMILES | inhibition at 1000 µM (Sulf-2) | inhibition at 1000 µM (aryl sulfatase A (ARSA)) | inhibition at 1000 µM (aryl sulfatase B (ARSB)) |
| --- | --- | --- | --- |
| O=S(=O)(Nc1cccc(-c2ccccc2)c1)OCC(F)(F)F [Compound 82] | 5% | 78% | 92% |
| O=S(=O)(Nc1ccccc1)OCC(Cl)(Cl)Cl [Compound 83] | 3% | 63% | 68% |

— paper PMC5477036, “Design and synthesis of biphenyl and biphenyl ether inhibitors of sulfatases” (Chemical Science, 2016)
